This is an account of results in patent US20110053897A1 (IRM LLC, priority 2009, published 2011).

Structures are written as SMILES.

The assay deals with T1, Syk kinase (Homo sapiens, UniProt P43405).
T1 construct: purchased
Briefly: Syk kinase inhibition, Caliper LabChip off-chip mobility-shift kinase assay. Format: biochemical. Particulars: Caliper LabChip assay; read-out: Syk Enzyme IC50. In outline: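 Purified Syk pre-incubated 15 min with compound in 100 mM HEPES pH 7.5, 1 mM DTT, 10 mM MgCl2 or MnCl2, 0.002% Brij-35, then 1.5 μM fluorescein peptide and ATP at apparent KM added; 1–1.5 h at room temperature, 4% DMSO, EDTA stop. Microfluidic mobility-shift product/substrate conversion gave % inhibition; IC50 from 12-point series (10–0.00003 μM) by 4-parameter fit.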
In general, IC50 refers to the concentration at which inhibition is half-maximal. Take `CC(C)(C)Nc1nc(Nc2cc(C(F)(F)CO)ccn2)cc2ccn(CCO)c(=O)c12` [compound 871]: the IC50 is less than 1.27 nM. `CC(C)(C)Nc1nc(Nc2cc(C(F)CO)ccn2)cc2ccn(CCO)c(=O)c12` (stereo not drawn) [compound 872]: the half-maximal inhibitory concentration (IC50) is less than 1.17 nM. As for `Cc1nc(-c2ccnc(Nc3cc4ccn(CCO)c(=O)c4c(NC(C)(C)C)n3)c2)no1` [compound 873], the IC50 was 27 nM. Consider `CC(C)(C)Nc1nc(Nc2cc(C(C)(F)F)ccn2)cc2ccn(CCO)c(=O)c12` [compound 874], for which the IC50 came out at 33 nM.

On to `CC(C)(C)Nc1nc(Nc2cc(CO)ccn2)cc2ccn(CC(=O)O)c(=O)c12` [compound 875], for which the IC50 turned out to be 6 nM. `[2H]C(C)(O)c1cc(Nc2cc3ccn(CCO)c(=O)c3c(NC(C)(C)C)n2)ncc1F` (stereo not drawn) [compound 876]: the 50% inhibitory concentration (IC50) was 15 nM.

`CC(C)(C)Nc1nc(Nc2cc(C(C)(C)O)c(F)cn2)cc2ccn(CC(N)=O)c(=O)c12` [compound 877]: the concentration for half-maximal inhibition (IC50) amounted to 94 nM. For `CC(C)(C)Nc1nc(Nc2cc(-c3ncccn3)ccn2)cc2ccn(CCO)c(=O)c12` [compound 878], the IC50 came out at 9 nM. In the case of `CC(C)(C)Nc1nc(Nc2cc(C(=O)NO)ccn2)cc2ccn(CCO)c(=O)c12` [compound 879], the half-inhibitory concentration (IC50) is 26 nM. Consider `CC(C)(O)Cc1ccnc(Nc2cc3ccn(CCO)c(=O)c3c(NC(C)(C)C)n2)c1` [compound 880], for which the IC50 stood at 74 nM. As to `CC(C)(C)Nc1nc(Nc2cnccn2)cc2ccn(Cc3c[nH]nn3)c(=O)c12` [compound 881], the IC50 was determined as 18 nM. For the compound `C#CCn1ccc2cc(Nc3cnccn3)nc(NC(C)(C)C)c2c1=O` [compound 882], the IC50 worked out at 51 nM.

Take `CC(C)(C)Nc1nc(Nc2cnccn2)cc2ccn(Cc3nn[nH]n3)c(=O)c12` [compound 884]: the IC50 was 27 nM.

As to `COCCOc1cc(Nc2cc3ccn(CC(O)CO)c(=O)c3c(NC(C)(C)C)n2)ncn1` (stereo not drawn) [compound 885], the concentration for half-maximal inhibition (IC50) was 78 nM. On to `Cc1cc(Nc2cc3ccn(CCO)c(=O)c3c(NC(C)(C)C)n2)ncn1` [compound 886], for which the IC50 came to 60 nM. Regarding `CC(C)(C)Nc1nc(Nc2cc(OCC3CCOC3)ncn2)cc2ccn(CC(O)CO)c(=O)c12` (stereo not drawn) [compound 887], the 50% inhibitory concentration (IC50) is 48 nM.

Take `CC(C)(C)Nc1nc(Nc2cc(-n3cc(C(=O)O)cn3)ncn2)cc2ccn(CCO)c(=O)c12` [compound 888]: the IC50 was determined as 24 nM. With `CCOC(=O)c1cnn(-c2cc(Nc3cc4ccn(CCO)c(=O)c4c(NC(C)(C)C)n3)ncn2)c1` [compound 889], the concentration for half-maximal inhibition (IC50) is 2180 nM. With `CC(C)(C)Nc1nc(Nc2cc(Oc3cn[nH]c3)ncn2)cc2ccn(C[C@H](O)CO)c(=O)c12` [compound 890], the IC50 is 21 nM.

`CC(C)(C)Nc1nc(Nc2cc(OCC3CCCO3)ncn2)cc2ccn(CC(O)CO)c(=O)c12` (stereo not drawn) [compound 891]: the 50% inhibitory concentration (IC50) came out at 60 nM. As to `CC(C)Nc1nc(-c2cnc(N)nc2)cc2ccn(CCO)c(=O)c12` [compound 892], the half-maximal inhibitory concentration (IC50) came out at 136 nM.

With `CCC(C)(C)Nc1nc(-c2cnc(N)nc2)cc2cc[nH]c(=O)c12` [compound 893], the 50% inhibitory concentration (IC50) worked out at 43 nM. As to `CC(C)(C)Nc1nc(-c2cnc(N)nc2)cc2cc[nH]c(=O)c12` [compound 894], the half-maximal inhibitory concentration (IC50) came out at 5 nM. The result for `CCn1ccc2cc(Nc3cnccn3)nc(NC(C)(C)CO)c2c1=O` [compound 895] reads 27 nM. For the compound `CC1(Nc2nc(Nc3cnccn3)cc3ccn(CCO)c(=O)c23)CCC1` [compound 896], the half-inhibitory concentration (IC50) was found to be 11 nM. Regarding `CCn1ccc2cc(Nc3cnccn3)nc(NC3(CO)CCC3)c2c1=O` [compound 897], the 50% inhibitory concentration (IC50) was 5 nM.

Regarding `CC(C)(C)CNc1nc(Nc2cnccn2)cc2ccn(CCO)c(=O)c12` [compound 898], the IC50 amounted to 20 nM.

In the case of `CC(C)(C)Nc1nc(-c2cnc(N)nc2)cc2ccn(CCO)c(=O)c12` [compound 899], the IC50 is 17 nM. The result for `CC(C)(C)Nc1nc(Nc2cc(C(F)(F)F)ccn2)cc2ccn(CCO)c(=O)c12` [compound 901] reads 231 nM. Take `CC(C)(CO)Nc1nc(-c2cnc(N)nc2)cc2ccn(CCO)c(=O)c12` [compound 902]: the IC50 was 57 nM. Regarding `Nc1ncc(-c2cc3ccn(CCO)c(=O)c3c(NC3(CO)CCC3)n2)cn1` [compound 903], the IC50 was 26 nM. The result for `CCn1ccc2cc(-c3cnc(N)nc3)nc(NC(C)(C)CO)c2c1=O` [compound 904] reads 4 nM; that for `CCn1ccc2cc(-c3cnc(N)nc3)nc(NC3(CO)CCC3)c2c1=O` [compound 905], less than 1.01 nM.

In the case of `CCn1ccc2cc(-c3cnc(N)nc3)nc(NC3(C)CCC3)c2c1=O` [compound 906], the half-maximal inhibitory concentration (IC50) turned out to be 29 nM.

In the case of `CC1(Nc2nc(-c3cnc(N)nc3)cc3ccn(CCO)c(=O)c23)CCC1` [compound 907], the IC50 is less than 0.847 nM. The same measure for `CCC(C)(C)Nc1nc(-c2cnc(N)nc2)cc2ccn(CCO)c(=O)c12` [compound 908]: 21 nM; for `Nc1ncc(-c2cc3ccn(CCO)c(=O)c3c(N3CCCC3)n2)cn1` [compound 909]: 546 nM; for `COCCn1ccc2cc(-c3cnc(N)nc3)nc(NC(C)(C)C)c2c1=O` [compound 910]: 30 nM. With `CC(C)(C)CNc1nc(-c2cnc(N)nc2)cc2ccn(CCO)c(=O)c12` [compound 911], the IC50 came to 94 nM. As for `Nc1ncc(-c2cc3ccn(CCO)c(=O)c3c(N[C@H]3CC[C@@H](CO)C3)n2)cn1` [compound 912], the IC50 came out at 2 nM. In the case of `CCn1ccc2cc(-c3cnc(N)nc3)nc(N[C@H]3CC[C@@H](CO)C3)c2c1=O` [compound 913], the IC50 is 5 nM. As for `CCCn1ccc2cc(-c3cnc(N)nc3)nc(NC(C)(C)C)c2c1=O` [compound 914], the IC50 was 108 nM. In the case of `CC(C)(C)Nc1nc(-c2cnc(N)nc2)cc2ccn(CCCO)c(=O)c12` [compound 915], the IC50 is 26 nM. The same measure for `CC(C)(C)Nc1nc(-c2cnc(N)nc2)cc2ccn(CC3CCCO3)c(=O)c12` (stereo not drawn) [compound 918]: 35 nM; for `CC(C)(C)Nc1nc(-c2cnc(N)nc2)cc2ccn(CC3CCOCC3)c(=O)c12` [compound 919]: 81 nM; for `CC(C)(C)Nc1nc(-c2cnc(N)nc2)cc2ccn(CCCCO)c(=O)c12` [compound 920]: 18 nM.

In the case of `CC(C)(C)Nc1nc(-c2cnc(N)nc2)cc2ccn(C3COC3)c(=O)c12` [compound 921], the half-maximal inhibitory concentration (IC50) came out at 21 nM. As to `CC(C)(C)Nc1nc(-c2cnc(N)nc2)cc2ccn(C(CO)CO)c(=O)c12` [compound 922], the half-inhibitory concentration (IC50) is 6 nM. Take `CC(C)(C)Nc1nc(-c2cnc(N)nc2)cc2ccn(CC3(CO)COC3)c(=O)c12` [compound 923]: the 50% inhibitory concentration (IC50) came out at 10 nM.

As for `CC1(Cn2ccc3cc(-c4cnc(N)nc4)nc(NC(C)(C)C)c3c2=O)COC1` [compound 924], the IC50 came out at 13 nM. Regarding `CC(C)(Cc1ccc(F)cc1)Nc1nc(-c2cnc(N)nc2)cc2ccn(CCO)c(=O)c12` [compound 925], the half-inhibitory concentration (IC50) turned out to be 145 nM. Regarding `CC(C)(C)Nc1nc(-c2cnc(N)nc2)cc2ccn(CC(O)C(F)(F)F)c(=O)c12` (stereo not drawn) [compound 926], the IC50 stood at 50 nM. Regarding `CC(O)Cn1ccc2cc(-c3cnc(N)nc3)nc(NC(C)(C)C)c2c1=O` (stereo not drawn) [compound 927], the IC50 turned out to be 14 nM.

Take `CC(C)(O)Cn1ccc2cc(-c3cnc(N)nc3)nc(NC(C)(C)C)c2c1=O` [compound 928]: the IC50 came out at 44 nM.
